Experimental data from ChEMBL document CHEMBL1125817, “Synthesis and evaluation of a series of 3,5-disubstituted benzisoxazole-4,7-diones. Potent radiosensitizers in vitro” (1991).

What was measured:
[1] = organism: Cricetulus griseus; test: Concentration of the highest non-toxic dose tested; assay type: functional
[2] = Sensitizer enhancement ratio was determined from the ratio of the doses required to reduce cell survival to 25% of the control value obtained from hypoxic survival curves in the presence and absence of test compound; assay type: functional, Cricetulus griseus
[3] = organism: Cricetulus griseus; test: Sensitizer enhancement ratio was determined from the ratio of the doses required to reduce cell survival to 25% of the control value obtained from hypoxic survival curves in the presence and absence of test compound; c = Compound was too insoluble to test; assay type: functional
[4] = organism: Cricetulus griseus; test: Concentration of the highest non-toxic dose tested; c = Compound was too insoluble to test; assay type: functional

| Structure (SMILES) | Concentration [1] | Ratio [2] | Ratio [3] | Concentration [4] |
| --- | --- | --- | --- | --- |
| O=C1C=C(Nc2ccc(C(F)(F)F)cc2)C(=O)c2c1noc2NCCN1CCCCC1 | 0.13 mM | 1.6 | – | – |
| CN(C)CCN(C)c1onc2c1C(=O)/C(=N\c1ccccc1)C=C2O | 0.38 mM | 2 | – | – |
| Cc1ccc(/N=C2/C=C(O)c3noc(NCCN(C)C)c3C2=O)cc1 | 0.05 mM | 1.2 | – | – |
| O=C1C=C(Nc2ccc(Cl)cc2)C(=O)c2c1noc2NCCN1CCCCC1 | 0.19 mM | 1.9 | – | – |
| CCOc1onc2c1C(=O)/C(=N\c1ccc(Cl)cc1)C=C2O | – | – | Too insoluble | Too insoluble |
| O=C1/C(=N\c2ccccc2)C=C(O)c2noc(N(CCO)CCO)c21 | 1.5 mM | 2.1 | – | – |
| CCOc1onc2c1C(=O)/C(=N\c1ccc(C(F)(F)F)cc1)C=C2O | – | – | Too insoluble | Too insoluble |
| CN(C)CCCNc1onc2c1C(=O)/C(=N\c1ccc(Cl)cc1)C=C2O | 0.13 mM | 1.7 | – | – |
| CCN(CC)c1onc2c1C(=O)/C(=N\c1ccccc1)C=C2O | – | – | Too insoluble | Too insoluble |
| O=C1C=C(Nc2ccccc2)C(=O)c2c1noc2-c1ccccc1 | – | – | Too insoluble | Too insoluble |
| CN(C)CCCNc1onc2c1C(=O)/C(=N\c1ccc(C(F)(F)F)cc1)C=C2O | 0.09 mM | 1.3 | – | – |
| CCOc1onc2c1C(=O)/C(=N\c1ccccc1)C=C2O | 0.03 mM | 1.3 | – | – |
| Cc1onc2c1C(=O)/C(=N\c1ccccc1)C=C2O | – | – | Too insoluble | Too insoluble |
| O=C1C=C(Nc2ccc(F)cc2)C(=O)c2c1noc2NCCN1CCCCC1 | 0.29 mM | 1.6 | – | – |
| CN(C)CCCNc1onc2c1C(=O)/C(=N\c1ccc(F)cc1)C=C2O | 0.38 mM | 1.4 | – | – |
| CN(C)CCCN(C)c1onc2c1C(=O)/C(=N\c1ccccc1)C=C2O | 0.38 mM | 1.5 | – | – |
| O=C1C=C(Nc2ccccc2)C(=O)c2c1noc2NCCN1CCCCC1 | 0.38 mM | 2.4 | – | – |
| CCOc1onc2c1C(=O)/C(=N\c1ccc(C)cc1)C=C2O | – | – | Too insoluble | Too insoluble |
| CCOc1onc2c1C(=O)/C(=N\c1ccc(F)cc1)C=C2O | – | – | Too insoluble | Too insoluble |
| CN(C)CCCNc1onc2c1C(=O)/C(=N\c1ccccc1)C=C2O | 0.19 mM | 1.7 | – | – |
| CCNc1onc2c1C(=O)/C(=N\c1ccccc1)C=C2O | – | – | Too insoluble | Too insoluble |
| CN(C)CCNc1onc2c1C(=O)/C(=N\c1ccccc1)C=C2O | 0.19 mM | 1.5 | – | – |
